From US10670605B2, “Cysteine reactive probes and uses thereof” (The Scripps Research Institute, priority 2015, dated 2020)

Tests used:
Assay in all cases: Competitive isoTOP-ABPP in situ (fragment-treated cells)
Type in all cases: cell-based
[1] = target: T1, cysteines in MDA-MB-231 and Ramos cells (Homo sapiens, UniProt Q99439)
T1 sequence (Q99439 1-309): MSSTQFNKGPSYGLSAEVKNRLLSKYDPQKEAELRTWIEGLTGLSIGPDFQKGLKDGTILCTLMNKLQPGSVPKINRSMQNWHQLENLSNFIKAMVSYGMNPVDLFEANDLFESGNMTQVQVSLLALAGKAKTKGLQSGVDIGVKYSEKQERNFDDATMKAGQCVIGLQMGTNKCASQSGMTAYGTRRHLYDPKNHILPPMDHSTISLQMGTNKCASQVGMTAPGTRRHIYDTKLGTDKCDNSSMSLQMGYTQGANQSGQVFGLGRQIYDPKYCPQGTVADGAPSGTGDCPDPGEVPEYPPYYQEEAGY

[2] = target: T2, cysteines in MDA-MB-231 and Ramos cells (Homo sapiens, UniProt Q9NQC3)
T2 sequence (Q9NQC3 1-1192): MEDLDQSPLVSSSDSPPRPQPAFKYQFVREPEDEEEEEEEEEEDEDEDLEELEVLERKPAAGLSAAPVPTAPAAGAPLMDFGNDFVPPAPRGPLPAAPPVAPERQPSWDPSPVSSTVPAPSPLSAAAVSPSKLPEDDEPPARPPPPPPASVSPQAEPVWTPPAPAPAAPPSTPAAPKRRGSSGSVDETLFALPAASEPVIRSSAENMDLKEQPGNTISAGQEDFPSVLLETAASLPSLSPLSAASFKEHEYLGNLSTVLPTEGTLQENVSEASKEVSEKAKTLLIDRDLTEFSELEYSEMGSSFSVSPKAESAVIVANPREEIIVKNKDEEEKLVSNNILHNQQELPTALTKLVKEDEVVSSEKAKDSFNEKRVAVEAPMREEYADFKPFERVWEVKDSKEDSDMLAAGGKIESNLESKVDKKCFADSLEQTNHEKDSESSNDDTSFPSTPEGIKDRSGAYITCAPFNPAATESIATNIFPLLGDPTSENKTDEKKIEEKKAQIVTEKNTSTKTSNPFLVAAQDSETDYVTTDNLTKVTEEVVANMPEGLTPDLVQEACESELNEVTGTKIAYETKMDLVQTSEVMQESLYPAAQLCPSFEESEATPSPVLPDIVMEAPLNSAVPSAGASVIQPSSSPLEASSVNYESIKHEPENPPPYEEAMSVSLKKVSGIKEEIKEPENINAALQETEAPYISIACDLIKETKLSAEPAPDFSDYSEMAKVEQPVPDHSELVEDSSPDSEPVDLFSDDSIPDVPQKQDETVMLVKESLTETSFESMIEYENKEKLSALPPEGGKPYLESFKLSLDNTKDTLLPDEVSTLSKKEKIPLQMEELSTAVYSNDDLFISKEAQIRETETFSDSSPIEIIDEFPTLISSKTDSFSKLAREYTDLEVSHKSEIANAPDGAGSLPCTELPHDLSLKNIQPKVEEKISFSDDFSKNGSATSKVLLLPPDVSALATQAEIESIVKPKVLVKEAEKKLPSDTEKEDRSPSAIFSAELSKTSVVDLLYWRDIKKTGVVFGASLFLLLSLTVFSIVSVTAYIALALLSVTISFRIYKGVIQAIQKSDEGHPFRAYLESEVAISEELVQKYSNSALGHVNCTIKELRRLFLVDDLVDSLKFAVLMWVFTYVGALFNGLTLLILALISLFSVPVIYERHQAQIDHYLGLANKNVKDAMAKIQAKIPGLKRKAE

[3] = target: T3, cysteines in MDA-MB-231 and Ramos cells (Homo sapiens, UniProt P31943)
T3 sequence (P31943 1-449): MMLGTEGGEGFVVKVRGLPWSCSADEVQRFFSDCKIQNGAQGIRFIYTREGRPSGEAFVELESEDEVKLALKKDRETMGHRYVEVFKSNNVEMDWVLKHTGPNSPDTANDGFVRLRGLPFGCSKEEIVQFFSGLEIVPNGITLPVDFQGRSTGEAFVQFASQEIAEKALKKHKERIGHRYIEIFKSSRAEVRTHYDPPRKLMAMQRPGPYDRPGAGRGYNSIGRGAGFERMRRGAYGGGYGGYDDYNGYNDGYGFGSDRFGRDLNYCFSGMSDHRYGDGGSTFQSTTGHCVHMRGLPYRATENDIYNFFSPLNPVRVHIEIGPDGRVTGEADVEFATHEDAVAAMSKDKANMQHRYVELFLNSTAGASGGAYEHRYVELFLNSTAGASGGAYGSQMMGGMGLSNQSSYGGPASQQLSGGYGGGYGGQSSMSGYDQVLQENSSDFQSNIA

[4] = target: T4, cysteines in MDA-MB-231 and Ramos cells (Homo sapiens, UniProt P52597)
T4 sequence (P52597 1-415): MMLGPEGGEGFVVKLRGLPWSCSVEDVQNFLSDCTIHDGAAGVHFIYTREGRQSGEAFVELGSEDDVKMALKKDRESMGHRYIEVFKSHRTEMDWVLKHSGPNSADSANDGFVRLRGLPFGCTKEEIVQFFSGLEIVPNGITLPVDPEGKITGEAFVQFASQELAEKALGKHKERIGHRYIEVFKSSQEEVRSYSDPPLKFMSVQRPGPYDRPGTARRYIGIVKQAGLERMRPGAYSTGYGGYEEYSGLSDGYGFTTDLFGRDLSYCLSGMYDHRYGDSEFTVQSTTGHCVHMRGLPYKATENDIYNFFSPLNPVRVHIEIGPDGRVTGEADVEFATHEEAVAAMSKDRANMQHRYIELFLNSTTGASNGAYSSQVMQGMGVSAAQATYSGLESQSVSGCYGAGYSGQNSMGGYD

## COc1ccccc1OCCNC(=O)CCl [compound 28]
[1]; 200 μM, insitu, 231
  isoTOP-ABPP ratio Q99439_C164: 0.9

## Cc1ccc(C=C(C#N)C(=O)NCCN2CCOCC2)cc1 [compound 41]
[2]; 200 μM, insitu, 231
  isoTOP-ABPP ratio Q9NQC3_C1101: 1.0
[1]; 200 μM, insitu, 231
  isoTOP-ABPP ratio Q99439_C164: 0.4
[3]; 200 μM, insitu, 231
  isoTOP-ABPP ratio P31943_C267: 1.0
[4]; 200 μM, insitu, 231
  isoTOP-ABPP ratio P52597_C267: 0.8

## O=C(CCl)NC(=O)NC12CC3CC(CC(C3)C1)C2 [compound 12]
[2]; 200 μM, insitu, 231
  isoTOP-ABPP ratio Q9NQC3_C1101: 20.0
[1]; 200 μM, insitu, 231
  isoTOP-ABPP ratio Q99439_C164: 0.9
[3]; 200 μM, insitu, 231
  isoTOP-ABPP ratio P31943_C267: 5.0
[4]; 200 μM, insitu, 231
  isoTOP-ABPP ratio P52597_C267: 6.8

## O=C(CCl)NCCc1c[nH]c2ccccc12 [compound 13]
[1]; 200 μM, insitu, 231
  isoTOP-ABPP ratio Q99439_C164: 0.9
[1]; 200 μM, insitu, ramos
  isoTOP-ABPP ratio Q99439_C164: 1.3
[3]; 200 μM, insitu, 231
  isoTOP-ABPP ratio P31943_C267: 1.1
[3]; 200 μM, insitu, ramos
  isoTOP-ABPP ratio P31943_C267: 1.2
[4]; 200 μM, insitu, 231
  isoTOP-ABPP ratio P52597_C267: 1.2
[4]; 200 μM, insitu, ramos
  isoTOP-ABPP ratio P52597_C267: 1.3

## O=C(CCl)N1CCC(Cc2ccccc2)CC1 [compound 9]
[2]; 200 μM, insitu, 231
  isoTOP-ABPP reactivity Q9NQC3_C1101 RTN4: 20.0
[1]; 200 μM, insitu, 231
  isoTOP-ABPP reactivity Q99439_C164 CNN2: 4.7
[3]; 200 μM, insitu, 231
  isoTOP-ABPP reactivity P31943_C267 HNRNPH1: 2.1
[4]; 200 μM, insitu, 231
  isoTOP-ABPP reactivity P52597_C267 HNRNPF: 3.2

## COc1ccc(C2CC(c3cccs3)=NN2C(=O)CCl)cc1 (stereo not drawn) [compound 4]
[2]; 100 μM in situ 231
  isoTOP-ABPP reactivity Q9NQC3_C1101 RTN4: 20.0
[1]; 100 μM in situ 231
  isoTOP-ABPP reactivity Q99439_C164 CNN2: 1.5
[3]; 100 μM in situ 231
  isoTOP-ABPP reactivity P31943_C267 HNRNPH1: 6.0
[4]; 100 μM in situ 231
  isoTOP-ABPP reactivity P52597_C267 HNRNPF: 20.0

## O=C(CCl)NC12CC3CC(CC(C3)C1)C2 [compound 21]
[2]; 200 μM, insitu, 231
  isoTOP-ABPP ratio Q9NQC3_C1101: 2.1
[1]; 200 μM, insitu, 231
  isoTOP-ABPP ratio Q99439_C164: 0.9
[3]; 200 μM, insitu, 231
  isoTOP-ABPP ratio P31943_C267: 1.5
[4]; 200 μM, insitu, 231
  isoTOP-ABPP ratio P52597_C267: 1.5

## O=C(CCl)Nc1cccc2ncccc12 [compound 51]
[2]; 200 μM, insitu, 231
  isoTOP-ABPP ratio Q9NQC3_C1101: 1.2
[3]; 200 μM, insitu, 231
  isoTOP-ABPP ratio P31943_C267: 1.3
[4]; 200 μM, insitu, 231
  isoTOP-ABPP ratio P52597_C267: 1.3

## Cn1cc(S(=O)(=O)N2CCOCC2)cc1C(=O)NC(=O)CCl [compound 11]
[2]; 100 μM in situ 231
  isoTOP-ABPP ratio Q9NQC3_C1101: 1.1
[1]; 100 μM in situ 231
  isoTOP-ABPP ratio Q99439_C164: 0.6
[3]; 100 μM in situ 231
  isoTOP-ABPP ratio P31943_C267: 0.9
[4]; 100 μM in situ 231
  isoTOP-ABPP ratio P52597_C267: 1.0

## C=CC(=O)Nc1cc(F)c(N2CCN(C(=O)OC(C)(C)C)CC2)c(F)c1 [compound 38]
[2]; 200 μM, insitu, 231
  isoTOP-ABPP ratio Q9NQC3_C1101: 20.0
[1]; 200 μM, insitu, 231
  isoTOP-ABPP ratio Q99439_C164: 1.5
[3]; 200 μM, insitu, 231
  isoTOP-ABPP ratio P31943_C267: 1.2
[4]; 200 μM, insitu, 231
  isoTOP-ABPP ratio P52597_C267: 1.8

## CC1CCc2ccccc2N1C(=O)CCl (stereo not drawn) [compound 45]
[1]; 200 μM, insitu, 231
  isoTOP-ABPP ratio Q99439_C164: 1.8
[3]; 200 μM, insitu, 231
  isoTOP-ABPP ratio P31943_C267: 3.6
[4]; 200 μM, insitu, 231
  isoTOP-ABPP ratio P52597_C267: 4.1

## COc1ccc2c(c1)CCCN2C(=O)CCl [compound 2]
[2]; 200 μM, insitu, 231
  isoTOP-ABPP reactivity Q9NQC3_C1101 RTN4: 12.0
[3]; 200 μM, insitu, 231
  isoTOP-ABPP reactivity P31943_C267 HNRNPH1: 3.8
[4]; 200 μM, insitu, 231
  isoTOP-ABPP reactivity P52597_C267 HNRNPF: 4.2

## COc1cc2c(cc1OC)CN(C(=O)CCl)CC2 [compound 8]
[1]; 200 μM, insitu, 231
  isoTOP-ABPP reactivity Q99439_C164 CNN2: 1.1
[3]; 200 μM, insitu, 231
  isoTOP-ABPP reactivity P31943_C267 HNRNPH1: 5.3

## CC(C)CCOCCNC(=O)CCl [compound 27]
[2]; 200 μM, insitu, 231
  isoTOP-ABPP ratio Q9NQC3_C1101: 1.4
[3]; 200 μM, insitu, 231
  isoTOP-ABPP ratio P31943_C267: 1.1
[4]; 200 μM, insitu, 231
  isoTOP-ABPP ratio P52597_C267: 1.0

## O=C(CCl)N1CCN(S(=O)(=O)c2ccccc2F)CC1 [compound 10]
[2]; 200 μM, insitu, 231
  isoTOP-ABPP ratio Q9NQC3_C1101: 20.0
[1]; 200 μM, insitu, 231
  isoTOP-ABPP ratio Q99439_C164: 1.2
[1]; 200 μM, insitu, ramos
  isoTOP-ABPP ratio Q99439_C164: 1.3
[3]; 200 μM, insitu, 231
  isoTOP-ABPP ratio P31943_C267: 4.8
[3]; 200 μM, insitu, ramos
  isoTOP-ABPP ratio P31943_C267: 2.5
[4]; 200 μM, insitu, 231
  isoTOP-ABPP ratio P52597_C267: 2.5
[4]; 200 μM, insitu, ramos
  isoTOP-ABPP ratio P52597_C267: 2.4

## O=C(CCl)N1CCN(CC(=O)N2CCOCC2)CC1 [compound 29]
[1]; 200 μM, insitu, ramos
  isoTOP-ABPP ratio Q99439_C164: 1.0
[3]; 200 μM, insitu, ramos
  isoTOP-ABPP ratio P31943_C267: 1.4
[4]; 200 μM, insitu, ramos
  isoTOP-ABPP ratio P52597_C267: 1.2

## C=CC(=O)N(Cc1cccnc1)c1cc(C(F)(F)F)cc(C(F)(F)F)c1 [compound 31]
[2]; 200 μM, insitu, 231
  isoTOP-ABPP ratio Q9NQC3_C1101: 12.8
[1]; 200 μM, insitu, 231
  isoTOP-ABPP ratio Q99439_C164: 0.7
[1]; 200 μM, insitu, ramos
  isoTOP-ABPP ratio Q99439_C164: 1.3
[3]; 200 μM, insitu, 231
  isoTOP-ABPP ratio P31943_C267: 0.7
[3]; 200 μM, insitu, ramos
  isoTOP-ABPP ratio P31943_C267: 0.9
[4]; 200 μM, insitu, 231
  isoTOP-ABPP ratio P52597_C267: 1.2
[4]; 200 μM, insitu, ramos
  isoTOP-ABPP ratio P52597_C267: 1.3
